Test results as given in PubChem BioAssay AID588782 (Southern Research Specialized Biocontainment Screening …, 2011).
Values joined by “and” are separate entries in the source; they are usually repeats but may differ in a detail not shown here. Equal values may be shown once. Active and inactive are the calls of the source.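 The calls were made as follows: active = virus-caused cell damage raised over twofold versus untreated cells in three repeats, without toxicity at overlapping doses; inactive = the rest.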

System: PC3 cells, HSV G47-delta CPE, CellTiter-Glo, 96 h
Assay: augmentation of HSV G47-delta CPE in PC3 cells – cell-based, CellTiter-Glo, secondary, confirmation (AID 588782);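 as to CPE increase: percent rise in virus-caused cell damage over infected cultures given no drug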
Details: for outcome / CPE increase: at 10 µM; for CC50: measured here: PC3 cytotoxicity; for CPE increase: stronger effect = higher value

| SMILES | outcome | CC50 | CPE increase |
| --- | --- | --- | --- |
| O=C(OCCCN1CCN(CCCOC(=O)c2ccccc2)CC1)c1ccccc1 | inactive | > 100 µM | – |
| COc1ccc(C(=O)OCCCNCCNCCCOC(=O)c2ccc(OC)cc2)cc1 | inactive | > 93 µM and 21.7 µM | 19.8% (inactive) |
| O=C(CCN1CCCN(CCC(=O)Nc2ccccc2)CC1)Nc1ccccc1 | inactive | > 100 µM | – |
| CN1CCN(CCCOC(=O)c2ccc(F)cc2)CC1 | inactive | > 100 µM | – |
| COc1ccc(C(=O)OCCCN2CCN(C)CC2)cc1 | inactive | > 100 µM | – |
| O=C(NCCCN1CCN(CCCNC(=O)c2ccc3c(c2)OCO3)CC1)c1ccc2c(c1)OCO2 | – | > 100 µM | 14.4% (inactive) |
| O=C(CN1CCCN(CC(=O)CN2C(=O)c3ccccc3C2=O)CC1)CN1C(=O)c2ccccc2C1=O | inactive | > 100 µM | – |
| O=C(OCCCN1CCCN(CCCOC(=O)c2ccc(F)cc2)CC1)c1ccc(F)cc1 | inactive | 66.9 µM | – |
| CNCCN(C)CCCOC(=O)c1ccc(OC)cc1 | inactive | > 100 µM | – |
| COc1cc(C(=O)OCCN2CCCC2)cc(OC)c1OC | inactive | > 100 µM | – |
| COc1cc(OC)cc(C(=O)OCCN2CCOCC2)c1 | inactive | > 100 µM | – |
| COc1cc(C(=O)OCCN2CCN(CCOC(=O)c3cc(OC)c(OC)c(OC)c3)CC2)cc(OC)c1OC | inactive | > 100 µM | – |
| COc1cc(C(=O)OCCN2CCOCC2)cc(OC)c1OC | inactive | > 100 µM | – |
| CNCCN(C)CCOC(=O)c1cc(OC)cc(OC)c1 | inactive | > 100 µM | – |
| COc1ccc(C(=O)OCCCN2CCCN(CCCOC(=O)c3ccc(OC)cc3)CC2)cc1 | inactive | > 93 µM | – |
| COc1ccc(C(=O)NCCCN2CCCN(C)CC2)cc1 | inactive | > 100 µM | – |
| COc1cc(C(=O)NCCCN2CCCN(CCCNC(=O)c3cc(OC)c(OC)c(OC)c3)CC2)cc(OC)c1OC | – | > 100 µM | 16% (inactive) |
| COc1ccc(C(=O)OCCN2CCCN(Cc3ccccc3)CC2)cc1 | inactive | > 100 µM | – |

| SMILES | outcome | CC50 | CPE increase |
| --- | --- | --- | --- |
| COc1cc(OC)cc(C(=O)OCCCN2CCN(C)CC2)c1 | inactive | > 100 µM | – |
| COc1ccc(C(=O)OCCN2CCN(CCOC(=O)c3ccc(OC)cc3)CC2)cc1 | inactive | > 100 µM | – |
| COc1cc(C(=O)OCCN2CCCN(Cc3ccccc3)CC2)cc(OC)c1OC | inactive | > 100 µM | – |
| COc1ccc(C(=O)OCCCN2CCCN(C)CC2)cc1 | inactive | > 100 µM | – |
| COc1cc(C(=O)OCCCN2CCN(CCCOC(=O)c3cc(OC)c(OC)c(OC)c3)CC2)cc(OC)c1OC | inactive | > 100 µM | – |
| COc1ccc(C(=O)OCCN2CCCN(CCOC(=O)c3ccc(OC)cc3)CC2)cc1 | inactive | > 100 µM | – |
| COc1cc(NC(=O)N2CCCN(C(=O)Nc3cc(OC)c(OC)c(OC)c3)CC2)cc(OC)c1OC | – | > 100 µM | 24.5% (inactive) |
| COc1cc(OC)cc(C(=O)OCCN2CCN(C)CC2)c1 | inactive | > 100 µM | – |
| COc1cc(COCCCN2CCCN(CCCOCc3cc(OC)c(OC)c(OC)c3)CC2)cc(OC)c1OC | inactive | > 100 µM | – |
| COc1ccc(C(=O)OCCN2CCCN(C)CC2)cc1 | – | > 100 µM | 27.1% (inactive) |
| CN1CCCN(CCCOC(=O)c2ccccc2)CC1 | inactive | > 100 µM | – |
| COc1cc(C(=O)OCCCN2CCCN(CCOC(=O)c3cc(OC)c(OC)c(OC)c3)CC2)cc(OC)c1OC | inactive | > 100 µM | – |
| COc1cc(-c2cn(CCCN3CCCN(CCCn4cc(-c5cc(OC)c(OC)c(OC)c5)nn4)CC3)nn2)cc(OC)c1OC | inactive | > 100 µM | – |
| O=C(/C=C/c1ccc2c(c1)OCO2)N1CCCN(C(=O)/C=C/c2ccc3c(c2)OCO3)CC1 | inactive | > 100 µM | – |
| CC(=O)NCCCN1CCCN(CCCNC(C)=O)CC1 | inactive | > 100 µM | – |
| CN1CCN(CCCOC(=O)c2ccccc2)CC1 | inactive | > 100 µM | – |
| COc1cc(C(=O)OCCCN2CCCN(C)CC2)cc(OC)c1OC | inactive | > 100 µM | – |
| COc1cc(OC)cc(C(=O)OCCCNCCNCCCOC(=O)c2cc(OC)cc(OC)c2)c1 | – | 32.1 µM | 15.8% (inactive) |
